The results in this text go back to ChEMBL document CHEMBL2029202, “Towards a KCC2 blocker pharmacophore model” (Bioorg Med Chem Lett, 2012).

For the experiment, the target named is T1, Solute carrier family 12 member 5 (Rattus norvegicus, UniProt Q63633).
T1 sequence (Q63633 whole entry): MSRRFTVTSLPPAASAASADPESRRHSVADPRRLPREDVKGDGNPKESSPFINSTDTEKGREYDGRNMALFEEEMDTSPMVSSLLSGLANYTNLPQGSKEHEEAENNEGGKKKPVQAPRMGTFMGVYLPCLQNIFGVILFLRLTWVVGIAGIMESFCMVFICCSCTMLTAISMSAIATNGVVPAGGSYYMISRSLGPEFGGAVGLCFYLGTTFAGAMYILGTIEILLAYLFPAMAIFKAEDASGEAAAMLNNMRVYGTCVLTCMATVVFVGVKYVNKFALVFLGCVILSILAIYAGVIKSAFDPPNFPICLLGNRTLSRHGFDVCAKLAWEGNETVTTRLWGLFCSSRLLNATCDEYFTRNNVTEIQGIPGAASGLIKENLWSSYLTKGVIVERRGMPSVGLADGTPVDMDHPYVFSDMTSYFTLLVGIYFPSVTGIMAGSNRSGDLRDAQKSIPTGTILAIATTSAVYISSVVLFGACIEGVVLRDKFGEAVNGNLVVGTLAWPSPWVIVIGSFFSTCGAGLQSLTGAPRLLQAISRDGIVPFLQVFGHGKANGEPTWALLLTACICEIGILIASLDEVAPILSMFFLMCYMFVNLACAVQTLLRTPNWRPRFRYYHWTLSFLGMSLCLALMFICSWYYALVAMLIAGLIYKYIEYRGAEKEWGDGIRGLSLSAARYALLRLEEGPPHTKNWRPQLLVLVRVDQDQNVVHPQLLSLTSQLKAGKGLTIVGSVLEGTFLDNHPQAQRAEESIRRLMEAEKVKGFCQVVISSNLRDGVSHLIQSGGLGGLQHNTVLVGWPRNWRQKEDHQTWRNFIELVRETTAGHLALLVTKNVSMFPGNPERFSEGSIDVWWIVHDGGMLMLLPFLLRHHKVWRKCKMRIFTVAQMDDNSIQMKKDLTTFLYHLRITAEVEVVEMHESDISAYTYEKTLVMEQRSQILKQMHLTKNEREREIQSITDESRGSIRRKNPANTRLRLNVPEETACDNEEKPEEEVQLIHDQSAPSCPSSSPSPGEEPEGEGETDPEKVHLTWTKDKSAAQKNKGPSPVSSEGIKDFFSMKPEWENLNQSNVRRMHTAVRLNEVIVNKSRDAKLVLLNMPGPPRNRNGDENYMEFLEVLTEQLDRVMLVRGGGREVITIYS
As to the kind of experiment: Inhibition of rat KCC2 expressed in human Sk-Hep cells assessed as […] off Rb+ flux by atomic absorption spectroscopic analysis. The class given is cell-based.

For `CC(=O)N1CCCC1(COCc1ccccc1)Cc1ccccc1` (racemic), the IC50 (usually the concentration at which inhibition is half-maximal) is 20000 nM.
To `O=C(c1cc2cc(Br)ccc2oc1=O)N1CCN(Cc2ccccc2)CC1` belongs 600 nM; to `CC(=O)N1CCCC1(Cc1ccccc1)c1nc(-c2ccccc2)co1` (racemic), 12600 nM.
Under `O=C1CCCC2CCC(Cc3ccccc3)(C(=O)OCc3ccccc3)N12` (racemic) stands 1000 nM.
To `CC(=O)N1CCCC1(Cc1ccc(F)cc1)C(=O)CCc1ccc(F)cc1` (racemic) belongs 200 nM.
As to `CC(=O)N1c2ccccc2CC1(Cc1ccccc1)C(=O)OCc1ccccc1` (racemic), the IC50 was found to be 200 nM.
To `CC(=O)N1CCC[C@]1(Cc1ccccc1)C(=O)OCc1ccccc1` belongs 50000 nM; to `CC(=O)N1CCC[C@@]1(Cc1ccccc1)C(=O)OCc1ccccc1`, 300 nM; to `CC(=O)N1CCCC1(Cc1ccccc1)C1=N[C@H](c2ccccc2)CO1` (mixture of isomers), 1300 nM.
To `CC(=O)N1CCCC1(Cc1ccccc1)C(=O)OCc1ccccc1` (racemic) belongs 800 nM; to `CC(=O)N1CCCC1(Cc1ccccc1)C(=O)CCc1ccccc1` (racemic), 300 nM; to `O=C(c1cc2ccccc2oc1=O)N1CCN(Cc2ccccc2)CC1`, 4000 nM.
